Assay results as given in US4599346A, “Propan-2-ol derivatives, a process for their production and medicaments containing these compounds” (Ludwig Heumann & Co., GmbH, priority 1983, dated 1986).

Tests used:
[1] = background statement; result in words; cited from earlier work
[2] = biological target: T1, histamine-H2 -receptors (Cavia porcellus, UniProt P47747); test: H2-antagonistic activity: pA2 values in vitro on the isolated atrium of guinea pigs
T1 construct: in vitro on the isolated atrium of guinea pigs; from tissue; host or cells: isolated atrium of guinea pigs
Excerpt: J. Pharmacol. Chemother.", 27, 427 (1966) and Black et al., "Nature", 236, 385 (1971)].
A recognized method of measuring H2 -antagonistic activity is based on determination of the pA2 -values in vitro on the isolated atrium of guinea pigs

T1 sequence (P47747 whole entry): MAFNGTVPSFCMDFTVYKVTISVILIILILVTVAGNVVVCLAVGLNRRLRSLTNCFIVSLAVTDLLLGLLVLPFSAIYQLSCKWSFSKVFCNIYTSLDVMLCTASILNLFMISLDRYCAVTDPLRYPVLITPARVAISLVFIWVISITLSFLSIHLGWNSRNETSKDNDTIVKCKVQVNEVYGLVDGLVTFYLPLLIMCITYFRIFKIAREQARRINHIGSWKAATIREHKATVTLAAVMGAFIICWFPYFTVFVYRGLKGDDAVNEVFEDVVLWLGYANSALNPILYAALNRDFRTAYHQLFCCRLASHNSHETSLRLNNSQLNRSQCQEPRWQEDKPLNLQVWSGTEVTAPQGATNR

Row | Kb [2] [nM] | SMILES | half life [1]
1 | – | CN/C(=N/CCSCc1nc[nH]c1C)NC#N [Cimetidine] | relatively short half life
2 | 49 | Nc1n[s+]([O-])nc1NCC(O)COc1cccc(CN2CCCCC2)c1 (stereo not drawn) [Example 1, 4-amino-3-[2-hydroxy-3-[3-(1-piperidinylmethyl)-phenoxy]propyl]-amino-1,2,5-thiadiazole-1-oxide] | –
3 | 72.4 | Nc1c(NCC(O)COc2cccc(CN3CCCCC3)c2)c(=O)c1=O (stereo not drawn) [Example 2, 2-amino-1-[2-hydroxy-3-[3-(1-piperidinylmethyl)-phenoxy]propyl]-aminocyclobut-1-ene-3,4-dione] | –
